# Laboratory results published in ChEMBL document CHEMBL3612028, “Design, synthesis, pharmacological evaluation and molecular dynamics of β-amino acids morphan-derivatives as novel ligands for opioid receptors” (Eur J Med Chem, 2015).
# Key:
# [1] = Displacement of [3H]-diprenorphine from opioid receptor in rat brain membrane homogenates after 1 hr by liquid scintillation counting; type: cell membranes
# [2] = biological target: Mu opioid receptor-like OR2 (Danio rerio, UniProt B8JHS2); assay: Displacement of [3H]-diprenorphine from zebrafish mu opioid receptor expressed in HEK293 cells after 1 hr by liquid scintillation counting; type: cell-based
# Chain of Mu opioid receptor-like OR2 (B8JHS2 whole entry): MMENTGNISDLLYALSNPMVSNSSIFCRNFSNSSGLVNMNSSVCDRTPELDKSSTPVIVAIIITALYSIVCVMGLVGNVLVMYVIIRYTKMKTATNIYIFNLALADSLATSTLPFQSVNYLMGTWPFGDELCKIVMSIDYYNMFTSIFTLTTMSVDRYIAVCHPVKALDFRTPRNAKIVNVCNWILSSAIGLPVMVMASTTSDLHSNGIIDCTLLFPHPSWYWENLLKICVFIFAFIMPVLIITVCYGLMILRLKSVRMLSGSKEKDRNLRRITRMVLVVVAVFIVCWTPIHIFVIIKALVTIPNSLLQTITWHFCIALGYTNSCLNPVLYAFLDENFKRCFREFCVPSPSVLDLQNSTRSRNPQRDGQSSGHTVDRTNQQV
Compound,Ki [1] [µM],Ki [2] [µM]
COC(=O)[C@@H]1[C@@H]2CCC[C@H]1N(Cc1ccccc1)CC2,14.8,37
COC(=O)[C@@H]1[C@@H]2CCC[C@H]1N(C(=O)[C@@H](N)Cc1ccccc1)CC2,32.9,75.8
O=C(Oc1ccc(O)cc1)[C@@H]1[C@@H]2CCC[C@H]1NCC2,1.92,12.7
O=C(O)[C@@H]1[C@@H]2CCC[C@H]1NCC2,> 100,
O=C(Oc1cccc(O)c1)[C@@H]1[C@@H]2CCC[C@H]1NCC2,4.04,9.52
O=C(Oc1ccccc1)[C@@H]1[C@@H]2CCC[C@H]1NCC2,10.9,32
COC(=O)[C@@H]1[C@@H]2CCC[C@H]1NCC2,17.1,35.3
COC(=O)[C@H](Cc1ccccc1)NC(=O)[C@@H]1[C@@H]2CCC[C@H]1NCC2,14.8,78
COC(=O)[C@@H]1[C@@H]2CCC[C@H]1N(CCc1ccccc1)CC2,2.69,8.24
